Test results taken from patent publication US20240246977A1, “DEGRADATION OF BRUTON'S TYROSINE KINASE (BTK) BY CONJUGATION OF BTK INHIBITORS WITH E3 LIGASE LIGAND AND METHOD OF USE” (BeiGene Switzerland GmbH, priority 2021, published 2024).

How the values were obtained:
[1] = system: HEK-293 cells; test: HEK-293 cytotoxicity detection (CellTiter-Glo); format: cell-based; details: Homo sapiens, 72 h, 72 h incubation, CellTiter-Glo luminescence, read-out: HEK293
Outline: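 HEK-293 cells exposed 72 h to 8 compounds doses (4-fold dilutions, top stock 5 mM at 500×) in 0.2% DMSO. Viability by CellTiter-Glo luminescence; inhibition normalised to DMSO high control and low control, IC50 from four-parameter curve fit.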

[2] = biological target: BTK (Homo sapiens, UniProt Q06187); test: BTK cell degradation in TMD-8 cells, HTRF assay; format: cell-based; design: endogenous in cells; host or cells: TMD-8 cells; details: 6 h treatment, IC50 (DC50) of BTK degradation
Chain of BTK (Q06187 whole entry): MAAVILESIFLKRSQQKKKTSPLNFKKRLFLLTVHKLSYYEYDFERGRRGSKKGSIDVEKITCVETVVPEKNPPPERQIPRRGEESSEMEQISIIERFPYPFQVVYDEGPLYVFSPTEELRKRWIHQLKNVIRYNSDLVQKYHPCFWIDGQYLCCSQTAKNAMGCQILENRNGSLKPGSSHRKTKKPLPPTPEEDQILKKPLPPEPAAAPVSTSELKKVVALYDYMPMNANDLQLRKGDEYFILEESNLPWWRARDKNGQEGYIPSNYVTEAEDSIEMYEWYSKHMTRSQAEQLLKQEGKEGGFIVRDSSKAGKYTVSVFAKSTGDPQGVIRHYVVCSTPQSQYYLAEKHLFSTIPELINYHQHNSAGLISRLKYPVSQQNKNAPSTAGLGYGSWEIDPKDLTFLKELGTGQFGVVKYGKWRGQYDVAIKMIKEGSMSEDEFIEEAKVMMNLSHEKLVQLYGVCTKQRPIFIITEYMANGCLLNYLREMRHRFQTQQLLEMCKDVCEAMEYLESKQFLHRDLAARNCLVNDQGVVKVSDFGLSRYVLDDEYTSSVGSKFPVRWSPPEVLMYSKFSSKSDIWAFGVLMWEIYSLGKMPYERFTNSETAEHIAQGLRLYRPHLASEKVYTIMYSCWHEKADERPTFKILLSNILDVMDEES
Outline: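 BTK levels read by HTRF in lysates of TMD-8 cells exposed to compounds for 6 h, eight concentrations at 6-fold steps in 0.2% DMSO. Percent degradation versus DMSO and low controls was fitted with a four-parameter equation to give DC50; Dmax is maximal degradation.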

DC50 [2] [nM]	SMILES	IC50 [1] [nM]
1.78	Cc1cccc(NC(=O)c2ccc(-c3nn4c(c3C(N)=O)Nc3ccc(N5CCN(C6CN(C7CN(c8ccc(C9CCC(=O)NC9=O)cc8)C7)C6)CC5)cc3CC4)c(F)c2C)n1 (centres unmarked) [Example B65, 7-(4-(1′-(4-(2,6-dioxopiperidin-3-yl)phenyl)-[1,3′-biazetidin]-3-yl)piperazin-1-yl)-2-(2-fluoro-3-methyl-4-((6-methylpyridin-2-yl)carbamoyl)phenyl)-9,10-dihydro-4H-benzo[d]pyrazol[1,5-a][1,3]diazepine-carboxamide]	98.8
1.35	Cc1cccc(NC(=O)c2ccc(-c3nn4c(c3C(N)=O)Nc3ccc(N5CCN(C6CN(c7ccc(N8CCC(=O)NC8=O)cc7)C6)CC5)cc3CC4)c(F)c2C)n1 [Example B66, 7-(4-(1-(4-(2,4-dioxotetrahydropyrimidin-1(2H)-yl)phenyl)azetidin-3-yl)piperazin-1-yl)-2-(2-fluoro-3-methyl-4-((6-methylpyridin-2-yl)carbamoyl)phenyl)-9,10-dihydro-4H-benzo[d]pyrazolo[1,5-a][1,3]diazepine-3-carboxamide]	> 10000
0.622	Cc1cccc(NC(=O)c2ccc(-c3nn4c(c3C(N)=O)Nc3ccc(N5CCN(C6CC(c7ccc([C@H]8CCC(=O)NC8=O)cc7)C6)CC5)cc3CC4)c(F)c2C)n1 (stereo partly drawn) [Example B67, (R)-7-(4-(3-(4-(2,6-dioxopiperidin-3-yl)phenyl)cyclobutyl)piperazin-1-yl)-2-(2-fluoro-3-methyl-4-((6-methylpyridin-2-yl)carbamoyl)phenyl)-9,10-dihydro-4H-benzo[d]pyrazolo[1,5-a][1,3]diazepine-3-carboxamide]	96.8
2.56	Cc1cccc(NC(=O)c2ccc(-c3nn4c(c3C(N)=O)Nc3ccc(N5CCN(C6CC(c7ccc([C@@H]8CCC(=O)NC8=O)cc7)C6)CC5)cc3CC4)c(F)c2C)n1 (stereo partly drawn) [Example B68, (S)-7-(4-(3-(4-(2,6-dioxopiperidin-3-yl)phenyl)cyclobutyl)piperazin-1-yl)-2-(2-fluoro-3-methyl-4-((6-methylpyridin-2-yl)carbamoyl)phenyl)-9,10-dihydro-4H-benzo[d]pyrazolo[1,5-a][1,3]diazepine-3-carboxamide]	105
7.45	Cc1cccc(NC(=O)c2ccc(-c3nn4c(c3C(N)=O)Nc3ccc(N5CCN(C6CC(c7ccc(N[C@@H]8CCC(=O)NC8=O)cc7)C6)CC5)cc3CC4)c(F)c2C)n1 (stereo partly drawn) [Example B71, (R)-7-(4-(3-(4-((2,6-dioxopiperidin-3-yl)amino)phenyl)cyclobutyl)piperazin-1-yl)-2-(2-fluoro-3-methyl-4-((6-methylpyridin-2-yl)carbamoyl)phenyl)-9,10-dihydro-4H-benzo[d]pyrazolo[1,5-a][1,3]diazepine-3-carboxamide]	> 10000
6.23	Cc1cccc(NC(=O)c2ccc(-c3nn4c(c3C(N)=O)Nc3ccc(N5CCN(C6CC(c7ccc(N[C@H]8CCC(=O)NC8=O)cc7)C6)CC5)cc3CC4)c(F)c2C)n1 (stereo partly drawn) [Example B72, (S)-7-(4-(3-(4-((2,6-dioxopiperidin-3-yl)amino)phenyl)cyclobutyl)piperazin-1-yl)-2-(2-fluoro-3-methyl-4-((6-methylpyridin-2-yl)carbamoyl)phenyl)-9,10-dihydro-4H-benzo[d]pyrazolo[1,5-a][1,3]diazepine-3-carboxamide]	> 10000
2.18	Cc1cccc(NC(=O)c2ccc(-c3nn4c(c3C(N)=O)Nc3ccc(N5CCN(C(=O)C6CCN(c7ccc(N8CCC(=O)NC8=O)cc7)CC6)CC5)cc3CC4)c(F)c2C)n1 [Example B73, 7-(4-(1-(4-(2,4-dioxotetrahydropyrimidin-1(2H)-yl)phenyl)piperidine-4-carbonyl)piperazin-1-yl)-2-(2-fluoro-3-methyl-4-((6-methylpyridin-2-yl)carbamoyl)phenyl)-9,10-dihydro-4H-benzo[d]pyrazolo[1,5-a][1,3]diazepine-3-carboxamide]	> 10000
7.15	Cc1cccc(NC(=O)c2ccc(-c3nn4c(c3C(N)=O)Nc3ccc(N5CCN(C[C@H]6CCN(c7ccc(N8CCC(=O)NC8=O)cc7)C6)CC5)cc3CC4)c(F)c2C)n1 [Example B74, (R)-7-(4-((1-(4-(2,4-dioxotetrahydropyrimidin-1(2H)-yl)phenyl)pyrrolidin-3-yl)methyl)piperazin-1-yl)-2-(2-fluoro-3-methyl-4-((6-methylpyridin-2-yl)carbamoyl)phenyl)-9,10-dihydro-4H-benzo[d]pyrazolo[1,5-a][1,3]diazepine-3-carboxamide]	> 10000
30.1	Cc1cccc(NC(=O)c2ccc(-c3nn4c(c3C(N)=O)Nc3ccc(N5CCN(C(=O)Cc6cccc(N7CCC(=O)NC7=O)c6)CC5)cc3CC4)c(F)c2C)n1 [Example B75, 7-(4-(2-(3-(2,4-dioxotetrahydropyrimidin-1(2H)-yl)phenyl)acetyl)piperazin-1-yl)-2-(2-fluoro-3-methyl-4-((6-methylpyridin-2-yl)carbamoyl)phenyl)-9,10-dihydro-4H-benzo[d]pyrazolo[1,5-a][1,3]diazepine-3-carboxamide]	> 10000
> 2000	Cc1cccc(NC(=O)c2ccc(-c3nn4c(c3C(N)=O)Nc3ccc(N5CCN(CC6CCN(c7ccc(N8CCC(=O)N(CC(=O)OC(C)(C)C)C8=O)cc7)CC6)CC5)cc3CC4)c(F)c2C)n1 [Example B76, tert-butyl 2-(3-(4-(4-((4-(3-carbamoyl-2-(2-fluoro-3-methyl-4-((6-methylpyridin-2-yl)carbamoyl)phenyl)-9,10-dihydro-4H-benzo[d]pyrazolo[1,5-a][1,3]diazepin-7-yl)piperazin-1-yl)methyl)piperidin-1-yl)phenyl)-2,6-dioxotetrahydropyrimidin-1(2H)-yl)acetate]	> 10000
6.27	Cc1cccc(NC(=O)c2ccc(-c3nn4c(c3C(N)=O)Nc3ccc(N5CCN(CC6CCN(c7ccc(N8CCC(=O)N(COC(=O)C(C)(C)C)C8=O)cc7)CC6)CC5)cc3CC4)c(F)c2C)n1 [Example B78, (3-(4-(4-((4-(3-carbamoyl-2-(2-fluoro-3-methyl-4-((6-methylpyridin-2-yl)carbamoyl)phenyl)-9,10-dihydro-4H-benzo[d]pyrazolo[1,5-a][1,3]diazepin-7-yl)piperazin-1-yl)methyl)piperidin-1-yl)phenyl)-2,6-dioxotetrahydropyrimidin-1(2H)-yl)methyl pivalate]	> 10000
3.68	Cc1cccc(N(COC(=O)C(C)(C)C)C(=O)c2ccc(-c3nn4c(c3C(N)=O)Nc3ccc(N5CCN(CC6CCN(c7ccc(N8CCC(=O)N(COC(=O)C(C)(C)C)C8=O)cc7)CC6)CC5)cc3CC4)c(F)c2C)n1 [Example B79, (3-(4-(4-((4-(3-carbamoyl-2-(2-fluoro-3-methyl-4-((6-methylpyridin-2-yl)((pivaloyloxy)methyl)carbamoyl)phenyl)-9,10-dihydro-4H-benzo[d]pyrazolo[1,5-a][1,3]diazepin-7-yl)piperazin-1-yl)methyl)piperidin-1-yl)phenyl)-2,6-dioxotetrahydropyrimidin-1(2H)-yl)methyl pivalate]	> 10000
> 2000	Cc1cccc(NC(=O)c2ccc(-c3nn4c(c3C(N)=O)Nc3ccc(N5CCN(CC6CCN(c7ccc(N8CCC(=O)N(CC(=O)OCc9ccccc9)C8=O)cc7)CC6)CC5)cc3CC4)c(F)c2C)n1 [Example B80, benzyl 2-(3-(4-(4-((4-(3-carbamoyl-2-(2-fluoro-3-methyl-4-((6-methylpyridin-2-yl)carbamoyl)phenyl)-9,10-dihydro-4H-benzo[d]pyrazolo[1,5-a][1,3]diazepin-7-yl)piperazin-1-yl)methyl)piperidin-1-yl)phenyl)-2,6-dioxotetrahydropyrimidin-1(2H)-yl)acetate]	> 10000
> 2000	Cc1cccc(N(CC(=O)OCc2ccccc2)C(=O)c2ccc(-c3nn4c(c3C(N)=O)Nc3ccc(N5CCN(CC6CCN(c7ccc(N8CCC(=O)N(CC(=O)OCc9ccccc9)C8=O)cc7)CC6)CC5)cc3CC4)c(F)c2C)n1 [Example B81, benzyl 2-(3-(4-(4-((4-(2-(4-((2-(benzyloxy)-2-oxoethyl)(6-methylpyridin-2-yl)carbamoyl)-2-fluoro-3-methylphenyl)-3-carbamoyl-9,10-dihydro-4H-benzo[d]pyrazolo[1,5-a][1,3]diazepin-7-yl)piperazin-1-yl)methyl)piperidin-1-yl)phenyl)-2,6-dioxotetrahydropyrimidin-1(2H)-yl)acetate]	56.8
4.1	Cc1c(C(=O)Nc2ccn(C)n2)ccc(-c2nn3c(c2C(N)=O)Nc2ccc(N4CCN(CC5CCN(c6ccc(N7CCC(=O)NC7=O)cc6)CC5)CC4)cc2CC3)c1F [Example B82, 7-(4-((1-(4-(2,4-dioxotetrahydropyrimidin-1(2H)-yl)phenyl)piperidin-4-yl)methyl)piperazin-1-yl)-2-(2-fluoro-3-methyl-4-((1-methyl-1H-pyrazol-3-yl)carbamoyl)phenyl)-9,10-dihydro-4H-benzo[d]pyrazolo[1,5-a][1,3]diazepine-3-carboxamide]	> 10000

SMILES	DC50 [2] [nM]	IC50 [1] [nM]
Cc1cccc(N(CC(=O)OC(C)(C)C)C(=O)c2ccc(-c3nn4c(c3C(N)=O)Nc3ccc(N5CCN(CC6CCN(c7ccc(N8CCC(=O)N(CC(=O)OC(C)(C)C)C8=O)cc7)CC6)CC5)cc3CC4)c(F)c2C)n1 [Example B77, tert-butyl 2-(3-(4-(4-((4-(2-(4-((2-(tert-butoxy)-2-oxoethyl)(6-methylpyridin-2-yl)carbamoyl)-2-fluoro-3-methylphenyl)-3-carbamoyl-9,10-dihydro-4H-benzo[d]pyrazolo[1,5-a][1,3]diazepin-7-yl)piperazin-1-yl)methyl)piperidin-1-yl)phenyl)-2,6-dioxotetrahydropyrimidin-1(2H)-yl)acetate]	> 2000	38.3
